Test results published in paper PMC11154005 (Science (New York, N.Y.), 2023).

Biological target: GerA complex (GerAA-GerAB-GerAC) (Bacillus subtilis, UniProt P07869)
Assay: membrane depolarisation, DiSC3
Assay type: cell-based
Settings: 50 mM L-alanine; 30 min after addition; agonist, recognised by GerAB subunit

Chain of GerA complex (GerAA-GerAB-GerAC) (P07869 whole entry): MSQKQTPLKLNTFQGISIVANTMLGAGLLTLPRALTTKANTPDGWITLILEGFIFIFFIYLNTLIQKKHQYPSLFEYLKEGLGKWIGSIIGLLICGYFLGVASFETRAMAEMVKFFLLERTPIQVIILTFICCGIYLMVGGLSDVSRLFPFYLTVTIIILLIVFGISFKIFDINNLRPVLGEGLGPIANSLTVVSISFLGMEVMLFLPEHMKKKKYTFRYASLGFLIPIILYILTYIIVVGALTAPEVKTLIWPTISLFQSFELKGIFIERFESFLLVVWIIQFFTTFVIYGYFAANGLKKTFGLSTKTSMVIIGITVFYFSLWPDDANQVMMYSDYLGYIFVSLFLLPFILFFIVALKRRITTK
Chain of GerA complex (GerAA-GerAB-GerAC) (P07870 18-373, further chain): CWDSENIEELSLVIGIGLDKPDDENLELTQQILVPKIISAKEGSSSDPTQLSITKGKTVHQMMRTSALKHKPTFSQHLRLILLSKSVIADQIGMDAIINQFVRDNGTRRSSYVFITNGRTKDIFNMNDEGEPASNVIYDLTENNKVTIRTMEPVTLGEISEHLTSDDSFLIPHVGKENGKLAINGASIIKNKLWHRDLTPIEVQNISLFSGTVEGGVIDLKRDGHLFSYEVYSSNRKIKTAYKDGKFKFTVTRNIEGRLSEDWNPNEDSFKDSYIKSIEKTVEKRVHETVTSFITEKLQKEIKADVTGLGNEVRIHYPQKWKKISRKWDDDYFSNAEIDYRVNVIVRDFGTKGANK
Chain of GerA complex (GerAA-GerAB-GerAC) (P07868 whole entry, further chain): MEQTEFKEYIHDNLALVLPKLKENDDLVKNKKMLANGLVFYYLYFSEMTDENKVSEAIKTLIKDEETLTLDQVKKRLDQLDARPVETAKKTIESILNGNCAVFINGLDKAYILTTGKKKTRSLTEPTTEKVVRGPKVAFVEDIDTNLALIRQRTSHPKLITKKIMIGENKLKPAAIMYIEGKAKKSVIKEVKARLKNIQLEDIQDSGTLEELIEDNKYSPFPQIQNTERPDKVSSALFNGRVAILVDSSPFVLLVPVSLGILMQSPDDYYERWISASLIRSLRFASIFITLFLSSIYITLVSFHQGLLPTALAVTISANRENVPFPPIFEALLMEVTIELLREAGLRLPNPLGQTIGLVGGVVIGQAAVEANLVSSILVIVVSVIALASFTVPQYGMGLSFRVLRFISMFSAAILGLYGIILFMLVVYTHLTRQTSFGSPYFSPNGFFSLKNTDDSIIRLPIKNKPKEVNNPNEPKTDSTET

- % reduction in DiSC3(5) fluorescence at 50 mM: 30%
Structure (SMILES): C[C@H](N)C(=O)O [L-alanine]
